pIC50: −log10 of the molar value.
Columns and labels:
[1] = system: sciatic nerve; test: Sciatic nerve block in rats: duration of thermal nociceptive (sensory) block, modified hotplate test; format: in vivo, rat; details: for Block Duration (min) Sensory: rat sciatic nerve injection 0.3 mL; for Sensory:Motor Block Ratio: rat sciatic nerve block
Text: (§1) Sciatic Nerve Block and Neurobehavioral Testing. Animals were cared for in compliance with protocols approved by the Children's Hospital Animal Care and Use Committee, and the Massachusetts Institute of Technology Committee on Animal Care, which conformed to guidelines of the International Association for the Study of Pain. Adult male Sprague-Dawley rats (Charles River Laboratories) weighing 320-450 g were housed in groups, in a 6 AM to 6 PM light-dark cycle. Under brief isoflurane-oxygen anesthesia, a 23G needle was introduced postero-medial to the greater trochanter, until bone was contacted, and 0.3 mL of test solution was injected over the sciatic nerve. Thermal nociception was assessed by a modified hotplate test, and motor function via a weight-bearing test. […] Motor strength was assessed with a weight-bearing test. In brief, the animal was held over a digital balance such that it could bear weight with 1 hind paw at a time. The maximum weight that it could bear was recorded. The duration of motor blockade was defined as the time for weight bearing to return halfway to normal from maximal block. The halfway point for each rat was defined as […].

[2] = system: sciatic nerve; test: Sciatic nerve block in rats: duration of motor block, weight-bearing test; format: in vivo; details: rat sciatic nerve injection 0.3 mL
Text: as §1

[3] = system: C2C12 Mouse myoblasts; test: Cytotoxicity in C2C12 myotubules; format: cell-based; details: C2C12 cells; for cytotoxicity compared with ropivacaine and bupivacaine (in words): FIG. 2 / Table 2
Description: (§2) C2C12 Mouse myoblasts [American Type Culture Collection (ATCC) CRL-1772] were cultured to proliferate in DMEM supplemented with 20% FBS and 100 Penicillin Streptomycin. Cell culture supplies were obtained from Invitrogen, unless otherwise noted. Cells were plated at 50,000 cells per mL in DMEM with 2% horse serum and 1% Penn Strep, and left to differentiate into myotubules for 10-14 days. During differentiation, media were exchanged every 2 to 3 days. Cell viability and proliferation were studied after exposures to drugs for up to 24 h. PC12 cells (ATCC, CRL-1721) originating from rat adrenal gland pheochromocytoma were grown in 24-well tissue culture dishes (CellBind; Corning) with F-12K (ATCC) supplemented with 12.5% horse serum (Gibco), 2.5% FBS (Gibco), and 1% Penn Strep (Sigma). For neuronal induction (PC12), cells were seeded at a relative low density of 5×10^4 cells/cm2 and 50 ng/mL NGF was added 24 h after seeding. Cell viability and proliferation were evaluated as for C2C12 cells. Experiments with PC12 cells were conducted for up to 24 hours.

[4] = system: PC12 cells; test: Cytotoxicity in PC12 cells; format: cell-based, rat; details: for cytotoxicity compared with ropivacaine and bupivacaine (in words): FIG. 1 / Table 2
Description: as §2

SMILES	Block Duration (min) Sensory ([1]; dose conc 10 mM)	Block Duration (min) Sensory ([1]; dose conc 15 mM)	Block Duration (min) Motor ([2]; dose conc 10 mM)	Block Duration (min) Motor ([2]; dose conc 15 mM)	Sensory:Motor Block Ratio ([1]; dose conc 5 mM)	Block Duration (min) Sensory ([1]; dose conc 5 mM)	Block Duration (min) Sensory ([1]; dose conc 7.5 mM)	cytotoxicity compared with ropivacaine and bupivacaine (in words) [3]	Block Duration (min) Motor ([2]; dose conc 5 mM)	Block Duration (min) Motor ([2]; dose conc 7.5 mM)	cytotoxicity compared with ropivacaine and bupivacaine (in words) [4]	pIC50 ([3]; Mus musculus, cytotoxicity, exposure up to 24 h)	pIC50 ([4]; Rattus norvegicus, PC-12, cytotoxicity, exposure up to 24 h)
CCCN1CCCC[C@H]1C(=O)Nc1c(C)cccc1C (single isomer, unassigned) [(S)-Ropivacaine, reference compound]	150 ± 35 min	215 ± 31 min	150 ± 38 min	210 ± 28 min	–	–	–	–	–	–	–	–	–
CCC[N@+]1(CC(=O)OC)CCCC[C@H]1C(=O)Nc1c(C)cccc1C.[Br-] (racemic) [4Sa + 4Sb, 2-((2,6-Dimethylphenyl)carbamoyl)-1-(2-methoxy-2-oxoethyl)-1-propylpiperidin-1-ium bromide]	220 ± 40 min	254 ± 48 min	78 ± 24 min	69 ± 20 min	∞	34 ± 13 min	108 ± 27 min	significantly less cytotoxic than ropivacaine and bupivacaine	0 min	10 ± 10 min	significantly less cytotoxic than ropivacaine and bupivacaine	–	–
COC(=O)C[N@@+]1(C)CCCC[C@@H]1C(=O)Nc1c(C)cccc1C (racemic) [Compound 3b, 2-((2,6-Dimethylphenyl)carbamoyl)-1-(2-methoxy-2-oxoethyl)-1-methylpiperidin-1-ium bromide]	450 ± 60 min	–	300 ± 60 min	–	–	–	–	–	–	–	–	–	–
CCCC(=O)OC[N+]1(CCC)CCCC[C@H]1C(=O)Nc1c(C)cccc1C.[Cl-] (stereo in doubt) [Compound 11S, 1-((Butyryloxy)methyl)-2-((2,6-dimethylphenyl)carbamoyl)-1-propylpiperidin-1-ium chloride]	135 ± 56 min	–	90 ± 44 min	–	–	–	–	significantly less cytotoxic than ropivacaine and bupivacaine	–	–	significantly less cytotoxic than ropivacaine and bupivacaine	–	–
CCC[N@@+]1(CC(=O)NC)CCCC[C@H]1C(=O)Nc1c(C)cccc1C [Compound 26Sa, 2-((2,6-dimethylphenyl)carbamoyl)-1-(2-(methylamino)-2-oxoethyl)-1-propyl-1-piperidin-2-ylium bromide]	180 min	–	140 min	–	–	–	–	significantly less cytotoxic than ropivacaine and bupivacaine	–	–	significantly less cytotoxic than ropivacaine and bupivacaine	3.00	2.92
CCC[N+]1(COC(C)=O)CCCC[C@H]1C(=O)Nc1c(C)cccc1C.[Br-] (stereo partly shown) [Compound 10S, 1-(Acetoxymethyl)-2-((2,6-dimethylphenyl)carbamoyl)-1-propylpiperidin-1-ium bromide]	105 ± 53 min	–	65 ± 34 min	–	–	55 ± 23 min	–	significantly less cytotoxic than ropivacaine and bupivacaine	15 ± 15 min	–	significantly less cytotoxic than ropivacaine and bupivacaine	–	–
CCCC[N@+]1(CC(=O)OC)CCCC[C@H]1C(=O)Nc1c(C)cccc1C (racemic) [2a + 2b, 1-Butyl-2-((2,6-dimethylphenyl)carbamoyl)-1-(2-methoxy-2-oxoethyl)piperidin-1-ium bromide]	150 ± 51 min	–	50 ± 23 min	–	∞	30 ± 12 min	120 ± 34 min	significantly less cytotoxic than ropivacaine and bupivacaine	0 min	30 ± 15 min	significantly less cytotoxic than ropivacaine and bupivacaine	–	–
CCCC[N+]1(COC(C)=O)CCCCC1C(=O)Nc1c(C)cccc1C.[Br-] (stereo not shown) [Compound 9, 1-(Acetoxymethyl)-1-butyl-2-((2,6-dimethylphenyl)carbamoyl)piperidin-1-ium bromide]	120 ± 53 min	125 ± 51 min	75 ± 39 min	85 ± 36 min	–	65 ± 23 min	–	–	25 ± 19 min	–	–	–	–
COC(=O)C[N@@+]1(C)CCCC[C@H]1C(=O)Nc1c(C)cccc1C (racemic) [Compound 3a, 2-((2,6-Dimethylphenyl)carbamoyl)-1-(2-methoxy-2-oxoethyl)-1-methylpiperidin-1-ium bromide]	0 min	–	0 min	–	–	–	–	–	–	–	–	–	–
Br.CC[N+](CC)(CC(=O)Nc1c(C)cccc1C)CC(=O)OC [Compound 1, 2-((2,6-Dimethylphenyl)amino)-N,N-diethyl-N-(2-methoxy-2-oxoethyl)-2-oxoethan-1-aminium bromide]	–	–	–	–	–	–	–	significantly less cytotoxic than ropivacaine and bupivacaine	–	–	significantly less cytotoxic than ropivacaine and bupivacaine	–	–
